Assay results reported in the NIST ThermoML archive (doi:10.1016/j.fluid.2008.07.012).
± gives the expanded uncertainty stated by the source.

Settings: Crystal; DTA

Normal melting temperature	Compound
150 ± 1 °C	CC(C)CCC[C@@H](C)[C@H]1CC[C@H]2[C@@H]3CC=C4C[C@@H](OC(=O)c5ccccc5)CC[C@]4(C)[C@H]3CC[C@]12C [3β-benzoyloxycholest-5-ene]
99 ± 1 °C	CCCC(=O)O[C@H]1CC[C@@]2(C)C(=CC[C@H]3[C@@H]4CC[C@H]([C@H](C)CCCC(C)C)[C@@]4(C)CC[C@@H]32)C1 [3β-butanoyloxycholest-5-ene]
